US10907159B2, “Methods of treating cancer by inhibition of DNA repair proteins using antisense based therapies” (SARISSA INC., priority 2015, dated 2021)
“Also recorded” adds a separate entry of the source.

Columns and labels:
[1] = system: HK-2 kidney proximal tubule epithelial cells; assay: Cell proliferation assay, ASO transfection then drug (cell counting); assay type: cell-based, human; settings: FIG. 52
Experimental: FIG. […] Proliferation was determined by cell counting 96 hours post-transfection (*p<0.05).
Four hours post-transfection, cells were seeded into 6 well dishes in appropriate experimental groups. […] Ninety-six hours post transfection, cells were collected and counted (Coulter Particle Counter). Proliferation was determined based on initial cell density and calculated as a percentage of ASO+vehicle treated cells.

[2] = system: EPT1 prostate epithelial cells; assay: Veliparib after BR1 pretreatment; assay type: cell-based; settings: FIG. 37
[3] = system: SKOV-3 cells; assay: Cell proliferation assay, ASO transfection and/or drug (cell counting); assay type: cell-based, human; settings: FIG. 49
Experimental: FIG. 24 illustrates that BRCA2 inhibition sensitizes ovarian cancer and breast cancer cell lines to olaparib treatment. SKOV-3 (A) and CaOV3 (B) cells were transfected with control ASO (•) or BRCA2 ASO (∘) and then treated with three different concentrations of olaparib. Proliferation was determined by cell counting 96 hours post-transfection (*p<0.05). C: BRCA2 mRNA levels were measured by qPCR 24 hours following BRCA2 ASO transfection in SKOV-3, CaOV3, 211 H and H2052 cell lines.
E: SKOV-3 cells were transfected with control or BRCA2 ASO and then treated with olaparib 24 hours post transfection. Ninety-six hours post transfection, cells were counted, plated, and re-transfected with control ASO or BRCA2 ASO and re-treated with olaparib. Cell counts were performed 96 hours post transfection (*p<0.05). […]
A: BRCA2-wild type SKOV-3 cells (black bars), […] MCF-7 cells (white bars), and BRCA2-mutated CAPAN-1 cells (grey bars) were treated simultaneously but separately with BRCA2 ASO (20 nM). […] Ninety-six hours post-transfection, cells were counted and proliferation determined (% of proliferation after control ASO treatment).
C: SKOV-3, MCF-7 and CAPAN-1 cells were treated with two different concentrations of olaparib for 96 hours. After drug treatment they were counted and proliferation was determined as a percent of that of vehicle-treated cells. […]

[4] = system: A549b cells; assay: Proliferation of A549b cells after OLIGO/siRNA transfection (cell counting); assay type: cell-based, human
Experimental: Cultured cell lines were maintained in minimum essential medium a with nucleosides plus 10% fetal bovine serum and penicillin (50 units/mL)/streptomycin (50 mg/L) (growth medium). Cultures were incubated in a humidified atmosphere of 5% CO2 at 37° C. Cultured cell lines were maintained and cytotoxicity assays conducted as described previously (3). Rapidly proliferating cells were utilized for establishing cultures of experimental cells, which were allowed to plate overnight in 25-cm^2 flasks prior to manipulation. An established cell line of non-small-cell lung carcinoma (NSCLC), A549b, which was propagated by serial dilution from a single cell of an A549 parent cell line, was used for the establishment of antisense activity of oligonucleotides. This cell line proliferates with a mean generation time of approximately 20 hours, and is capable of forming tumours in immunodeficient mice with a take rate of greater than 90%. Therefore, this cell line is a good model system that can be used in both in vitro and in vivo experiments to test the activity of OLIGOs.
OLIGOs were introduced into cells with the use of Lipofectamine 2000 (LFA2K) (Invitrogen, Burlington, Ontario, Canada). OLIGOs were mixed with LFA2K at a ratio of 0.2 μg/ml per 10 nM OLIGO. The mixture was prepared at 11× the final concentration to which cells were exposed, so that 200 μL was added to 2 mL of medium in which cells were plated. As controls, cells were exposed to medium alone (no treatment), LFA2K alone at concentrations equivalent to those used in combination with OLIGOs (in some experiments only the maximum LFA2K concentration was used as a control), or OLIGO having no complementarity with any human mRNA. The OLIGO/LFA2K mixtures were then incubated at room temperature for 20 minutes, according to instructions supplied with the LFA2K, followed by addition of the OLIGOs to the cell medium. The OLIGO/LFA2K mix was then incubated (37° C.) on the cells for 4 hours, after which a second volume of medium was added. Cells were then incubated for 20 hours. Following this incubation, the OLIGO-containing medium was replaced with drug-free medium (i.e. medium without OLIGOs) and the cells were incubated for an additional 4 days. Following the 4-day incubation, the proliferation of the treated cells (fold-increase in cell number) was calculated as a percentage of that of control cells. Cell numbers were enumerated on an electronic particle counter (Beckman Coulter, Mississauga, ON). For the purpose of determining the anti-proliferative effect of antisense OLIGOs, the proliferation of cells treated with antisense OLIGOs was calculated as a percent of that of cells treated with an equivalent concentration of non-complementary control OLIGO (in this case OLIGO 32) mixed with an equivalent amount of LFA2K.
OLIGO-containing medium was removed and replaced with fresh medium. Cells were incubated for 4 days, at which time cell number was counted. Proliferation was calculated as a percent of non-targeting OLIGO-treated controls.
Cells were incubated for 4 days, at which time cell number was counted. Proliferation was calculated as a percent of controls.

[5] = system: EP156T primary prostate epithelial cells; assay: Veliparib after BR1 pretreatment; assay type: cell-based; settings: FIG. 37
[6] = system: TS mRNA; assay: RT-qPCR of TS mRNA in A549 cells after OLIGO transfection; assay type: cell-based, human; settings: 20 nM OLIGO, 24 hours post-transfection; FIG. 16
Experimental: Briefly, A549 cells seeded at a density of 2.0×10^5 per flask were transfected with 20 nM of OLIGO specific for each target or control OLIGO using Lipofectamine 2000 as the transfection reagent. Twenty four hours post-transfection mRNA was extracted and reverse transcribed into cDNA. RT-qPCR was performed for target mRNA levels using TaqMan reagents according to established protocols.

Substance: 5′-guaucuCTTGACGTuccuua-3′ (GUAUCUCTTGACGTUCCUUA; gapmer, lower-case wings modified, type not given here) [BR1]
- effect on antiproliferative activity of cisplatin [1]: no effect on the antiproliferative activity of cisplatin
- enhancement of veliparib [2]: little or not at all
- effect on antiproliferative activity of cisplatin [3]: enhances the antiproliferative activity of cisplatin
- anti-proliferative effect as single agent ([4]; A549/A549b cells, 4 h transfection, counted after 4 d, vs non-targeting control OLIGO): inhibited proliferation on its own; also recorded: greater inhibition as a single agent; also recorded: inhibit proliferation of human non-small cell lung cancer A549 cells in a concentration-dependent manner
- inhibit proliferation of A549b cells ([4]; single agent, mixed with 0.2 μg/mL LFA2K, compared with control OLIGO 32, FIG. 1): over 50%
- enhancement of veliparib [5]: little or not at all
- effect on TS mRNA level [6]: no significant effect on TS mRNA
